# How the values were obtained:
# Rattus norvegicus [1] = species on record: Rattus norvegicus; assay: Compound was tested for its Cholesterol Synthesis Inhibition ability in rats.; format: functional, organism-based
# [2] = target: T1, 3-hydroxy-3-methylglutaryl-coenzyme A reductase (Rattus norvegicus, UniProt P51639); assay: Compound was evaluated for the inhibition of HMG-CoA reductase (COR) in rats.
# T1 sequence (P51639 whole entry): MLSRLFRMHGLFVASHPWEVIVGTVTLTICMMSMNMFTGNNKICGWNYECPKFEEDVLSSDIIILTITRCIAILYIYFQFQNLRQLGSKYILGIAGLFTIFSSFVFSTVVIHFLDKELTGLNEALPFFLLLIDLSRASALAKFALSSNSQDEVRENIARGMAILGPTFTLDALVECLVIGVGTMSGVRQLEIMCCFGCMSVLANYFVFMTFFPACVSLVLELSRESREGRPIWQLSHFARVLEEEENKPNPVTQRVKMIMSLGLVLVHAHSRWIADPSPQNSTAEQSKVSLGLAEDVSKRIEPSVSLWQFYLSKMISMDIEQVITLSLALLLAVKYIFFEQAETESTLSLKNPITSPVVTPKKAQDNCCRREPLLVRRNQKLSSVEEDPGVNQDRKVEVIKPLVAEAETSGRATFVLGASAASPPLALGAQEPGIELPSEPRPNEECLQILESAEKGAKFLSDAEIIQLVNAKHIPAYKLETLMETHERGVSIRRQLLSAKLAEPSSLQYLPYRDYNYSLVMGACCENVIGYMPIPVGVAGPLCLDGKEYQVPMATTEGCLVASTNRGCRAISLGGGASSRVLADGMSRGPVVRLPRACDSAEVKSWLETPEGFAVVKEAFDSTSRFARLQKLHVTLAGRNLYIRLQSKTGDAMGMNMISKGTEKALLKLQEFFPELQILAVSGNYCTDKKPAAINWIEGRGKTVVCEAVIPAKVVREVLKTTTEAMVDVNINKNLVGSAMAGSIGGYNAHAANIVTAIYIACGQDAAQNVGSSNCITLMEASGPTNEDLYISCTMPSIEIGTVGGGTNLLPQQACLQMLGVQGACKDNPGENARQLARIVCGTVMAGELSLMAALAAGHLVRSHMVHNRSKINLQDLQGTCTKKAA
# Rattus norvegicus [3] = species on record: Rattus norvegicus; assay: Compound was evaluated for the percentage of acute inhibition of cholesterol synthesis (AICS) in male rats through peroral rout.; format: functional; design: concentration or dose not given beside the values
# [4] = (§1) Compound was tested for its relative Cholesterol Synthesis Inhibition as compared to compactin in rats.; format: functional
# Rattus norvegicus [5] = species on record: Rattus norvegicus; assay: as §1; format: functional
IC50 (Rattus norvegicus [1]),IC50 [2],SMILES,Inhibition (Rattus norvegicus [3]),Relative inhibition [4],Relative inhibition (Rattus norvegicus [5])
18 nM,79 nM,CC(C)c1c(/C=C/[C@@H]2C[C@@H](O)CC(=O)O2)c(-c2ccc(F)cc2)c2cc(F)ccc2[n+]1[O-],47%,112,
> 1000 nM,,Cc1cnc2ccccc2c1/C=C/[C@@H]1C[C@@H](O)CC(=O)O1,42%,,<1
,,CC(C)c1nc2ccc(F)cc2c(-c2ccc(F)cc2)c1/C=C/[C@@H]1C[C@@H](O)CC(=O)O1 (stereo in doubt; 17),69%,,
30 nM,,CC[C@H](C)C(=O)O[C@H]1CCC=C2C=C[C@H](C)[C@H](CC[C@@H]3C[C@@H](O)CC(=O)O3)[C@H]21 [MEVASTATIN],36%,,
32 nM,25 nM,CC(C)c1nc2ccc(Cl)cc2c(-c2ccc(F)cc2)c1/C=C/[C@@H]1C[C@@H](O)CC(=O)O1,61%,,100
> 1000 nM,,CC(C)c1nc2ccccc2c(-c2ccc(F)cc2)c1CC[C@@H]1C[C@@H](O)CC(=O)O1,,,<1
47 nM,350 nM,CN(C)c1nc2ccccc2c(-c2ccc(F)cc2)c1/C=C/[C@@H]1C[C@@H](O)CC(=O)O1,52%,,13.2
400 nM,720 nM,Cc1nc2ccc(Cl)cc2c(-c2ccc(F)cc2)c1/C=C/[C@@H]1C[C@@H](O)CC(=O)O1,18%,,6.3
42 nM,32 nM,CC(C)c1nc2ccccc2c(-c2ccc(F)cc2)c1/C=C/[C@@H]1C[C@@H](O)CC(=O)O1,70%,,75.8
25 nM,28 nM,CC[C@H](C)C(=O)O[C@H]1C[C@@H](C)C=C2C=C[C@H](C)[C@H](CC[C@@H]3C[C@@H](O)CC(=O)O3)[C@H]21 [LOVASTATIN],72%,,118
13 nM,53 nM,COc1ccc2nc(C(C)C)c(/C=C/[C@@H]3C[C@@H](O)CC(=O)O3)c(-c3ccc(F)cc3)c2c1,60%,,100
50 nM,200 nM,CC(C)c1nc2ccc(F)cc2c(-c2ccc(F)cc2)c1/C=C/[C@@H]1C[C@@H](O)CC(=O)O1 (stereo in doubt; 8d),68%,,77.6

# Reference: ChEMBL document CHEMBL1125871, “Inhibitors of cholesterol biosynthesis. 4. trans-6-[2-(substituted-quinolinyl)ethenyl/ethyl]tetrahydro-4-hydroxy-2 H-pyran-2-ones, a novel series of HMG-CoA reductase inhibitors” (J Med Chem, 1991)
